Test results taken from patent publication US6727401B1, “Pressure sensitive adhesive matrix patch for the treatment of onychomycosis” (Watson Pharmaceuticals, Inc., priority 1998, dated 2004).
Values belong to the molecule of their own block, whether it stands above or below them.

Experiments:
[1] = In vitro human cadaver skin flux study, modified Franz cells; assay type: in vitro ADME
Experimental: In vitro human cadaver skin flux studies were conducted using modified Franz non-jacketed permeation cells. The temperature of the skin surface was maintained at 32° C. by placing the cells in a circulating water bath positioned over a stirring module. The epidermal membrane was separated from the dermatomed human cadaver skin by the heat-separation method of Kligman and Christopher (Arch. Dermatol. 88:702 (1963)) involving the exposure of the full thickness skin to 60° C. heat for 60 seconds, after which time the stratum corneum and the epidermis (epidermal membrane) were gently peeled off the dermis.
For a matrix skin flux study, the heat separated human epidermal membrane was cut into rectangular strips. The matrix was cut into 0.71 cm^2 circular discs. […] At predetermined sampling intervals, the entire contents of the receiver compartment were collected for drug quantitation and the receiver compartment was filled with fresh receiver solution, taking care to eliminate any air bubbles at the skin/solution interface.
For the topical gel study, included for illustration purposes, a thin film of gel approximately 10 μl/cm^2, was applied to the stratum-corneum surface of a hydrated piece of human cadaver skin. […] At predetermined sampling intervals, the entire contents of the receiver compartment were collected for drug quantitation. […]

[2] = Amount of drug retained in the nail after matrix patch application; assay type: in vitro ADME; conditions: human, 48 hours
Experimental: (§1) In vitro human cadaver nail flux studies were conducted using modified Franz non-jacketed permeation cells. The temperature of the nail surface was maintained at 32° C. by placing the cells in a circulating water bath positioned over a stirring module. Human finger nail or toe nail was stored under frozen conditions in 0.02% (w/v) sodium azide solution. Nails that were greater than 1 cm^2 in area were used for the flux studies. Nails with dorsal side facing the donor compartment were sandwiched between two layers of a closed cell polyethylene foam film. Annular ring of 2.38 cm outer diameter and 0.95 cm inner diameter was cut from the backing film. The area of the donut hole (0.97 cm^2) is large enough to provide complete contact with the receiver media. The purpose of the foam backing film was to prevent any leakage of receiver medium from the cell assembly. The nails were allowed to hydrate at 32° C. overnight with 0.02% (w/v) sodium azide solution in the receiver compartment. The following morning, 0.71 cm^2 circular matrix patches were laminated onto the dorsal side of the nail. Each nail matrix sandwich was then loaded between the donor and receiver compartments of a diffusion cell, with the ventral side of nail facing the receiver compartment, and clamped in place.
The remaining portion of nail was also dried, weighed, extracted in dimethyl sulfoxide and analyzed for drug content.

[3] = In vitro human cadaver nail flux study, modified Franz cells, matrix patch; assay type: in vitro ADME
Experimental: The cumulative amount of drug permeated per unit area at any time t(Qt, μg/cm^2) was determined as follows: [formula]
where Cn is the concentration (μg/ml) of the drug in the receiver sample for the corresponding sample time, V is the volume of fluid in the receiver chamber (˜6.3 cm^3), and A is the diffusion area of the cell (0.64 cm^2).
as §1

[4] = Amount of drug retained in the skin after matrix patch application; conditions: patch at 24 hours versus day 1 after oral administration
[5] = long term, high dose systemic therapy, cited from earlier work

skin flux without an enhancer [1]: below the detection limit
amount of drug retained in the nail per unit dry weight of nail [2]: greater than 500 μg/g
permeation across the nail [3]: no permeation
Structure (SMILES): Clc1ccccc1C(c1ccccc1)(c1ccccc1)n1ccnc1 [clotrimazole]

Structure (SMILES): OC(Cn1cncn1)(Cn1cncn1)c1ccc(F)cc1F [fluconazole]
times higher amount of drug in the nail after patch application compared to reported oral administration [2]: 1000-2000 times
times higher amount of fluconazole in the skin compared to oral administration [4]: 500-600 times
permeation across the nail [3]: no permeation

Structure (SMILES): CC(=O)N1CCN(c2ccc(OCC3COC(Cn4ccnc4)(c4ccc(Cl)cc4Cl)O3)cc2)CC1 (centres unmarked) [ketoconazole]
effect of the presence of an enhancer on skin flux ([1]; enhancer lauramide-DEA, acrylic pressure sensitive adhesive): doubles the flux
reported liver toxicity [5]: liver toxicity effects
reported effect on testosterone levels in blood ([5]; due to adverse effects on the testes): reduces testosterone levels in blood

times higher amount of drug in the nail after patch application compared to reported oral administration [2]: 100-1000 times
permeation across the nail [3]: no permeation
Structure (SMILES): CN(C/C=C/C#CC(C)(C)C)Cc1cccc2ccccc12 [terbinafine]
